Test results published in PubChem BioAssay AID292 (DTP/NCI, 2004).
“And” between values parts separate entries of the source, which are not always exact repeats. Identical values can stand only once. Inconclusive results and toxic doses are left out. Rule for the calls: active = survival T/C of 150% or more; inactive = T/C below 125% in these data.

Test system: B6C3F1 mice, ip Sarcoma M5076, median survival T/C
Test: NCI In Vivo Anticancer Drug Screen. Data for tumor model Sarcoma M5076 (intraperitoneal) in B6C3F1 mice
Details: endpoint: median survival time, higher = longer survival
Summary of the method: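 Survival measured in treated (T) and vehicle control (C) mice with transplantable tumour; result given as T divided by C.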

[1] = dose: 18.75 mg/kg/injection, schedule: Q04DX004 (ip), vehicle: saline with Tween-80
[2] = dose: 37.5 mg/kg/injection, schedule: Q04DX004 (ip), vehicle: saline with Tween-80
[3] = dose: 75.0 mg/kg/injection, schedule: Q04DX004 (ip), vehicle: saline with Tween-80
[4] = dose: 150.0 mg/kg/injection, schedule: Q04DX004 (ip), vehicle: saline with Tween-80
[5] = dose: 300.0 mg/kg/injection, schedule: Q04DX004 (ip), vehicle: saline with Tween-80

Measured: T/C

COc1ccc(CCN2C(=O)C(=O)N(c3cccc4c(N5C(=O)C(=O)N(CCc6ccc(OC)c(OC)c6)C5=O)cccc34)C2=O)cc1OC
inactive: dose: 18.75 mg/kg/injection, schedule: Q04DX004 (ip), vehicle: Klucel (hydroxypropylcellulose) (HPC) 94 % of control | dose: 37.5 mg/kg/injection, schedule: Q04DX004 (ip), vehicle: Klucel (hydroxypropylcellulose) (HPC) 99 % of control | dose: 75.0 mg/kg/injection, schedule: Q04DX004 (ip), vehicle: Klucel (hydroxypropylcellulose) (HPC) 99 % of control | dose: 150.0 mg/kg/injection, schedule: Q04DX004 (ip), vehicle: Klucel (hydroxypropylcellulose) (HPC) 105 % of control

Nc1ccc(S(=O)(=O)Nc2cnc3c(Cl)cccc3n2)cc1
inactive: dose: 100.0 mg/kg/injection, schedule: Q04DX004 (ip), vehicle: DMSO 104 % of control | dose: 200.0 mg/kg/injection, schedule: Q04DX004 (ip), vehicle: DMSO 102 % of control | dose: 400.0 mg/kg/injection, schedule: Q04DX004 (ip), vehicle: DMSO 93 % of control

CC(O)(CSc1ccccc1)CSc1ccccc1 (tested in a mixture with another compound)
inactive: [1] 104 % of control | [2] 98 % of control | [3] 100 % of control | [4] 101 % of control | [5] 100 % of control

CCN(CC)Cc1c(OC)ccc2[nH]c3c4ccc(Cl)cc4ncc3c12
inactive: dose: 15.63 mg/kg/injection, schedule: Q04DX004 (ip), vehicle: saline with Tween-80 104 % of control | dose: 31.25 mg/kg/injection, schedule: Q04DX004 (ip), vehicle: saline with Tween-80 106 % of control | dose: 62.5 mg/kg/injection, schedule: Q04DX004 (ip), vehicle: saline with Tween-80 105 % of control | dose: 125.0 mg/kg/injection, schedule: Q04DX004 (ip), vehicle: saline with Tween-80 101 % of control | dose: 250.0 mg/kg/injection, schedule: Q04DX004 (ip), vehicle: saline with Tween-80 100 % of control

c1cc2c(c(CC3CO3)c1CC1CO1)OCCOCCOCCOCCO2 (stereo not given)
inactive: dose: 25.0 mg/kg/injection, schedule: Q04DX004 (ip), vehicle: saline + alcohol 107 % of control | dose: 50.0 mg/kg/injection, schedule: Q04DX004 (ip), vehicle: saline + alcohol 108 % of control | dose: 100.0 mg/kg/injection, schedule: Q04DX004 (ip), vehicle: saline + alcohol 111 % of control | dose: 200.0 mg/kg/injection, schedule: Q04DX004 (ip), vehicle: saline + alcohol 120 % of control

O=C1CSC(c2cccs2)N1c1nncs1 (stereo not given)
inactive: dose: 50.0 mg/kg/injection, schedule: Q04DX004 (ip), vehicle: Klucel (hydroxypropylcellulose) (HPC) 102 % of control and 111 % of control | dose: 100.0 mg/kg/injection, schedule: Q04DX004 (ip), vehicle: Klucel (hydroxypropylcellulose) (HPC) 98 % of control and 106 % of control | dose: 200.0 mg/kg/injection, schedule: Q04DX004 (ip), vehicle: Klucel (hydroxypropylcellulose) (HPC) 98 % of control and 106 % of control | dose: 400.0 mg/kg/injection, schedule: Q04DX004 (ip), vehicle: Klucel (hydroxypropylcellulose) (HPC) 111 % of control | dose: 800.0 mg/kg/injection, schedule: Q04DX004 (ip), vehicle: Klucel (hydroxypropylcellulose) (HPC) 122 % of control

N=C1C=CC2C(=Nc3ccccc3[N+]2=O)N1Cc1ccncc1 (stereo not given)
inactive: [1] 95 % of control | [2] 93 % of control | [3] 91 % of control | [4] 87 % of control | [5] 87 % of control

C/C=C(\C)C(=O)OC1C(C)=C2C(C1OC(=O)CCCCC)C(C)(OC(C)=O)CC(OC(=O)CCC)C1(O)C2OC(=O)C1(C)O (stereo not given)
inactive: dose: 1.0 mg/kg/injection, schedule: Q04DX004 (ip), vehicle: Klucel (hydroxypropylcellulose) (HPC) 97 % of control and 101 % of control | dose: 2.0 mg/kg/injection, schedule: Q04DX004 (ip), vehicle: Klucel (hydroxypropylcellulose) (HPC) 92 % of control and 101 % of control

COC(=O)[C@@]12OC[C@]34[C@H]([C@@H](O)[C@@H]1O)[C@@]1(C)CC(=O)C(O)=C(C)[C@@H]1C[C@H]3OC(=O)[C@H](OC(=O)/C=C(\C)C(C)C)[C@@H]24
inactive: dose: 0.12 mg/kg/injection, schedule: Q04DX005 (ip), vehicle: saline 97 % of control and 101 % of control | dose: 0.13 mg/kg/injection, schedule: Q04DX004 (ip), vehicle: saline 97 % of control and 112 % of control and 124 % of control | dose: 0.13 mg/kg/injection, schedule: Q04DX005 (ip), vehicle: saline 117 % of control and 122 % of control

CC(=O)Nc1ccc(O)c(O)c1
inactive: [3] 107 % of control | [4] 113 % of control | [5] 105 % of control | dose: 600.0 mg/kg/injection, schedule: Q04DX004 (ip), vehicle: saline with Tween-80 101 % of control | dose: 1200.0 mg/kg/injection, schedule: Q04DX004 (ip), vehicle: saline with Tween-80 104 % of control

Nc1ccc2ccc(N)cc2c1
inactive: dose: 25.0 mg/kg/injection, schedule: Q04DX004 (ip), vehicle: saline with Tween-80 93 % of control | dose: 50.0 mg/kg/injection, schedule: Q04DX004 (ip), vehicle: saline with Tween-80 96 % of control | dose: 100.0 mg/kg/injection, schedule: Q04DX004 (ip), vehicle: saline with Tween-80 89 % of control | dose: 200.0 mg/kg/injection, schedule: Q04DX004 (ip), vehicle: saline with Tween-80 93 % of control
